Reference: PMC10416764, “Crystal structure of Prp16 in complex with ADP” (Acta Crystallographica. Section F, Structural Biology …, 2023)

Target: T1, ctPrp16 (302-920) (Thermochaetoides thermophila, UniProt G0S0F9)
T1 construct: gene CTHT_0009880; residues 302-920 (RecA1, RecA2, WH, HB, OB-fold); N- and C-terminally truncated; codon-optimized gene, E. coli Rosetta2 (DE3), pGEX-6P-3, GST tag cleaved by PreScission; one molecule per asymmetric unit
T1 sequence (G0S0F9 301-920 limits assumed): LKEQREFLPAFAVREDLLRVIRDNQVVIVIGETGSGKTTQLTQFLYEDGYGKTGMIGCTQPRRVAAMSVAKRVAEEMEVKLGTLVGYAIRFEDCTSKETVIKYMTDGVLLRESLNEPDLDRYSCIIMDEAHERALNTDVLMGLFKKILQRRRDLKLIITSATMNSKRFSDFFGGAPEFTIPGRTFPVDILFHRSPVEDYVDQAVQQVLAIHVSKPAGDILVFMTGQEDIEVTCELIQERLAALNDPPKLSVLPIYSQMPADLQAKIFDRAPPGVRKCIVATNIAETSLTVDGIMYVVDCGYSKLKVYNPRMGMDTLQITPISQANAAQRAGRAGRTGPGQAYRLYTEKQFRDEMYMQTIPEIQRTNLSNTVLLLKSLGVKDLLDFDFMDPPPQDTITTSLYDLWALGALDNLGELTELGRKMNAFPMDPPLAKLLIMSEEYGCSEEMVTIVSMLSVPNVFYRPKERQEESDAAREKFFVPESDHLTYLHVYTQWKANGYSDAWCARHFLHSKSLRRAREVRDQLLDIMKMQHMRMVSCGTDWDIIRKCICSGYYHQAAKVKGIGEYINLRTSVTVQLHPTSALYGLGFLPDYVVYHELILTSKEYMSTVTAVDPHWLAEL
Assay: X-ray crystallography, […] A, co-crystallization
Format: binding
Conditions: Mg2+ bound; MES pH 6.5; 293 K; tenfold molar excess of ADP; nucleotide site between RecA1 and RecA2

Q: Which “X-ray crystallography, 1.9 A, co-crystallization” value does the source give for `Nc1ncnc2c1ncn2[C@@H]1O[C@H](COP(=O)(O)OP(=O)(O)O)[C@@H](O)[C@H]1O` [ADP] here?
A: The polder omit map clearly reveals the presence of ADP and a magnesium ion
